Legend:
[1] = Example 5: plasma pharmacokinetics of oxymorphone and metabolites after EN3202 in renal impairment vs healthy controls; conditions: for Mean bioavailability ratio (90% confidence interval) for AUC relative to controls / Mean bioavailability ratio (90% confidence interval) for Cmax relative to controls: ln-transformed; for AUC: AUC in plasma (mean, untransformed); for AUC(0-t): AUCT in plasma (mean, untransformed); for Cmax: Cmax in plasma (mean, untransformed); for half-life: t½, terminal elimination half-life in plasma (mean)
Protocol: (§1) Attempts were made to match controls with the renal impaired patients with respect to age, gender, and weight. […] Naltrexone (50 mg) was administered on the evening prior to administration of the EN3202 dose.
In order to protect the subjects from potential opioid-related adverse events, a single 50-mg dose of the opioid antagonist ReVia® (naltrexone HCl) was administered at 20:00 the evening prior to administration of test medication. […] Subjects continued fasting until four (4) hours after dose administration. The subjects remained in an upright posture (sitting or standing) for 1 hour after dose administration. All doses were administered with 240 mL of water (room temperature), and the subjects were instructed to drink all the water.
(§2) Plasma and urine pharmacokinetic variables were calculated from the concentration data using standard, non-compartmental methods as outlined in the following table.
All pharmacokinetic results are summarized using appropriate descriptive statistics. Continuous variables were compared between renally impaired and control groups using appropriate parametric statistics. 90% confidence intervals were calculated for the differences or ratios between the renally impaired and control groups. In addition, the association between oral clearance (and other pharmacokinetic variables) and the severity of renal insufficiency (based on creatinine clearance) was explored.

[2] = Example 5: correlation of oxymorphone and metabolite plasma AUC / oral clearance with creatinine clearance; format: in vivo, human; conditions: linear regression
Excerpt: Creatinine clearance (ClCR) was estimated at screening using the following Cockroft and Gault^8 equation: […]
All pharmacokinetic results are summarized using appropriate descriptive statistics.
The potential association between plasma AUC and creatinine clearance was explored using linear regression techniques and the results are summarized in Table 36 and FIG. 16.

[3] = Example 5: urinary excretion of oxymorphone and metabolites after EN3202 in renal impairment; conditions: for Mean (SD) Percent of Dose Recovered in Urine (0-120 hours): single oral 20-mg dose of EN3202; for half-life: human, urine, oral, 20 mg, Mean urinary elimination half-life
Protocol: as §1
Each subject was to be instructed to void at the end of each interval (so that each collection interval began with an empty bladder). The void prior to administration of the test medication (time 0) served as the pre-dose blank and was not be included in the collection container.
as §2

[4] = Pain levels (VAS, categorical scale) vs plasma oxymorphone and 6-hydroxyoxymorphone after a single dose; format: in vivo, human; conditions: single dose of oxymorphone, FIGS. 1-4
Protocol: For these tests, pain was measured using a Visual Analog Scale (VAS) or a Categorical Scale. The VAS scales consisted of a horizontal line, 100 mm in length. The left-hand end of the scale (0 mm) was marked with the descriptor “No Pain” and the right-hand end of the scale (100 mm) was marked with the descriptor “Extreme Pain”. Patients indicated their level of pain by making a vertical mark on the line. The VAS score was equal to the distance (in mm) from the left-hand end of the scale to the patient's mark. For the categorical scale, patients completed the following statement, “My pain at this time is” using the scale None=0, Mild=1, Moderate=2, or Severe=3.

[5] = in vivo; cited from earlier work
[6] = EN3202 20 mg, mild renal impairment
[7] = EN3202 20 mg, moderate renal impairment
[8] = EN3202 20 mg, severe renal impairment
[9] = human, plasma, oral, 20 mg, single 20 mg dose of EN3202, Healthy Controls
[10] = human, plasma, oral, 20 mg, single 20 mg dose of EN3202, Mild Impairment
[11] = human, plasma, oral, 20 mg, single 20 mg dose of EN3202, Moderate Impairment
[12] = human, plasma, oral, 20 mg, single 20 mg dose of EN3202, Severe Impairment
[13] = single 20 mg dose of EN3202, Moderate Impairment
[14] = single 20 mg dose of EN3202, Severe Impairment
[15] = AUC normalized for body weight vs creatinine clearance
[16] = oral clearance vs creatinine clearance
[17] = plasma AUC vs creatinine clearance

In the case of `CN1CC[C@]23c4c5ccc(O)c4O[C@H]2C(=O)CC[C@@]3(O)[C@H]1C5` [Oxymorphone, 14-hydroxydihydromorphinone, reference compound], the “Mean bioavailability ratio (90% confidence interval) for AUC relative to controls” value [1, 6] is reported as 1.2559 (0.8566-1.8414), the “Mean bioavailability ratio (90% confidence interval) for Cmax relative to controls” value [1, 6] is reported as 1.3772 (0.9359-2.0265) and the “Mean bioavailability ratio (90% confidence interval) for AUC relative to controls” value [1, 7] is reported as 1.5722 (1.0723-2.3051). The “Mean bioavailability ratio (90% confidence interval) for Cmax relative to controls” value [1, 7] was 1.6494 (1.1209-2.4270), the “Mean AUC increased relative to healthy controls” value [1, 8] was 1.7 fold and the “Mean bioavailability ratio (90% confidence interval) for AUC relative to controls” value [1, 8] was 1.6529 (1.1274-2.4234). The “Mean bioavailability ratio (90% confidence interval) for Cmax relative to controls” value [1, 8] was 1.8042 (1.2261-2.6549), the “Mean increase in plasma AUC values relative to healthy controls” value ([1]; EN3202 20 mg, subjects with creatinine clearance values, 30 mL/min) was “approximately 1.8 fold” and the Tmax ([1]; human, plasma, oral, 20 mg) was 3.5 h. The AUC [1, 9] was 18.9 ng·h/mL, the AUC [1, 10] was 21.7 ng·h/mL and the AUC [1, 11] was 27.9 ng·h/mL. The AUC [1, 12] was 34.5 ng·h/mL, the AUC(0-t) [1, 9] was 15.8 ng·h/mL and the AUC(0-t) [1, 10] was 19 ng·h/mL. It also gave an AUC(0-t) [1, 11] of 26.1 ng·h/mL, an AUC(0-t) [1, 12] of 29.7 ng·h/mL and a Cmax [1, 9] of 1.16 ng/mL. The Cmax [1, 10] was 1.47 ng/mL, the Cmax [1, 11] was 1.75 ng/mL and the Cmax [1, 12] was 2.04 ng/mL. It also gave a half-life [1, 9] of 13.5 h, a half-life [1, 10] of 12.4 h and a half-life [1, 12] of 13.3 h. The “CLo, clearance after oral administration (mean)” value (shortened to “CLo, clearance”) ([1]; single 20 mg dose of EN3202, Healthy Controls) was 22.07 L/min, the “CLo, clearance” value ([1]; single 20 mg dose of EN3202, Mild Impairment) was 16.14 L/min and the “CLo, clearance” value [1, 13] was 13.53 L/min. The “t½, terminal elimination half-life in plasma (mean)” value [1, 13] was 9.92 h, the “AUC in plasma (mean, untransformed)” value [1, 14] was 32.46 ng·h/mL and the “CLo, clearance” value [1, 14] was 13.79 L/min. For the same molecule, the “Tmax in plasma (median)” value [1, 14] was 2.0 h, the “AUC/wt vs. CLCR: R-square” value [2, 15] was 0.2898 and the “AUC/wt vs. CLCR: Slope” value [2, 15] was −0.0013. For the same molecule, the “CL/F vs. CLCR: R-square” value [2, 16] was 0.2592, the “CL/F vs. CLCR: Slope” value [2, 16] was 0.1229 and the “AUC vs. CLCR: R-square” value [2, 17] was 0.2400. The “AUC vs. CLCR: Slope” value [2, 17] was −0.1852, the “Mean percentage of the administered dose excreted in the urine” value ([3]; EN3202 20 mg, 0-120 hours, severe renal impairment) was 0.38% and the “Mean percentage of the dose excreted in the urine unchanged, reduced relative to healthy controls” value [3, 8] was “approximately 50%”. For the same molecule, the “Mean (SD) Percent of Dose Recovered in Urine (0-120 hours)” value (“Mean (SD) Percent of Dose Recovered” below) ([3]; healthy controls) was 0.77 (0.36) %, the half-life ([3]; EN3202 20 mg, healthy controls) was 12.5 h and the half-life [3, 6] was 12.1 h. For the same molecule, the half-life [3, 7] was 13.9 h, the half-life [3, 8] was 21 h and the “Mean (SD) Percent of Dose Recovered” value ([3]; subjects with mild renal impairment) was 1.37 (2.10) %. For the same molecule, the “Mean (SD) Percent of Dose Recovered” value ([3]; subjects with moderate renal impairment) was 0.66 (0.29) %, the “Mean (SD) Percent of Dose Recovered” value ([3]; subjects with severe renal impairment) was 0.38 (0.19) % and the “Relation between pain relief and blood plasma level” value [4] was “there is a correlation”. For the same molecule, the Oral bioavailability [5] was “about 10%”.
